In ChEMBL document CHEMBL1201862, “PubChem BioAssay data set” (2004):
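Tested at 5 concentrations; 48 h exposure; 96-well plates; endpoints linearly interpolated, else capped at highest concentration. GI50: concentration for 50% inhibition of growth.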 The source made the active and inactive calls. No stated cut-off is given here; in the data, active = GI50 up to about 1.1 µM and inactive = higher.

Tests used:
Assay in all cases: NCI tumour cell line growth inhibition, 48 h
SF-539 = tested on: SF-539
HCC 2998 = tested on: HCC 2998
RPMI-8226 = tested on: RPMI-8226
UO-31 = tested on: UO-31
SR = tested on: SR
EKVX = tested on: EKVX
NCI-H460 = tested on: NCI-H460
MDA-MB-435 = tested on: MDA-MB-435
U-251 = tested on: U-251
UACC-62 = tested on: UACC-62
K562 = tested on: K562
SNB-19 = tested on: SNB-19
BT-549 = tested on: BT-549
HCT-116 = tested on: HCT-116
SN12C = tested on: SN12C
MDA-N = tested on: MDA-N
NCI/ADR-RES = tested on: NCI/ADR-RES
OVCAR-3 = tested on: OVCAR-3
Malme-3M = tested on: Malme-3M
A498 = tested on: A498

Measured: GI50

CC(=O)c1ccccc1NP(=O)(c1ccccc1)c1ccccc1
inactive: SF-539 70.3 µM | HCC 2998 > 100 µM | RPMI-8226 16.6 µM | UO-31 45.3 µM | SR 60 µM | EKVX 45.4 µM | NCI-H460 43.6 µM | MDA-MB-435 38.7 µM | U-251 96.6 µM | UACC-62 35.2 µM | K562 62.5 µM | SNB-19 > 100 µM | BT-549 > 100 µM | HCT-116 53.2 µM | SN12C 69.5 µM | MDA-N 36.9 µM | NCI/ADR-RES 14.1 µM | OVCAR-3 43.1 µM | Malme-3M 34 µM | A498 31.4 µM
